Consider 1 compound from BindingDB's records for doi:10.1016/j.ejmech.2020.112861 (Zhengzhou University, 2021).

This test concerns the target Bromodomain-containing protein 4 (Homo sapiens, UniProt O60885). In words: Binding affinity to human BRD4 bromodomain1 by isothermal titration calorimetry.

Consider `Cc1noc(C)c1-c1ccc2c(c1)nc(CCc1ccccc1)n2CCN1CCOCC1`, for which the Kd (as a rule, the free concentration of one partner at which half of the binding sites on the other are occupied at equilibrium, for simple one-to-one binding) was found to be 950 nM.
